Here are results for three molecules from patent US3944580A, “7-[2-(Dithiocarboxylamino)alkanamido]-cephalosporanic acid derivatives” (American Home Products Corporation, priority 1974, dated 1976).

Usually MIC stands for the least concentration at which growth counts as inhibited.

In brackets after ≈: the same amount, converted by molar mass. Read-outs that look alike come from different tables or passages of the source.

Experiment [1] concerns bacillus subtilis (BA SU) 663. The experiment is described as follows: agar serial dilution MIC, BA SU 663. The note with it: BA SU strain 663. Format: cell-based. An excerpt: (§1) The compounds of this invention are antibacterials effective against gram-positive and gram-negative test organisms as well as penicillin resistant staphylococcus at an inhibitory concentration at or below 250 micrograms per milliliter using the well-known and scientifically accepted agar serial dilution technique. […] Thus, the compounds of this invention are useful in the fields of comparative pharmacology and microbiology and may be used in the treatment of bovine mastitis, as growth promotors in animals and for the treatment of infections amenable to treatment with penicillins and cephalosporins.
(§2) The following examples are presented for purposes of illustration and should not be construed as limitations upon the true scope of this invention.
Ba su -- bacillus subtilis

The test system of experiment [2] is staphylococcus aureus (ST AU) Smith. The experiment is described as follows: agar serial dilution MIC, ST AU Smith. The class given is cell-based.
Text: as §1, §2
(§3) St au -- staphylococcus aureus

Experiment [3] relates to escherichia coli (ES CO) 9637. The experiment is described as follows: agar serial dilution MIC, ES CO 9637. Format: cell-based. The conditions noted are these: ES CO strain 9637.
Text: as §1, §2
(§4) Es co -- escherichia coli

The test system of experiment [4] is salmonella paratyphi (SA PA) 11737. The experiment can be described thus: agar serial dilution MIC, SA PA 11737. Format: cell-based. The conditions noted are these: Salmonella enterica.
Text: as §1, §2
Sa pa -- salmonella paratyphi

Experiment [5] concerns klebsiella pneumoniae (KL PN) 10031. The experiment can be described thus: agar serial dilution MIC, KL PN 10031. The class given is cell-based. The note with it: KL PN strain 10031.
Text: as §1, §2
Kl pn -- klebsiella pneumoniae

Experiment [6] concerns staphylococcus aureus (ST AU) CHP. The experiment is described as follows: agar serial dilution MIC, ST AU CHP. The class given is cell-based. The note with it: ST AU strain CHP.
Text: as §1, §2, §3

Experiment [7] deals with staphylococcus aureus (ST AU) 6538P. The experiment is described as follows: agar serial dilution MIC, ST AU 6538P. Format: cell-based.
Text: as §1, §2, §3

Experiment [8] has as its system neisseria catarrhalis (NE CA) 8193. The experiment can be described thus: agar serial dilution MIC, NE CA 8193. The class given is cell-based. The conditions noted are these: NE CA strain 8193.
Text: as §1, §2
Ne ca -- neisseria catarrhalis

Experiment [9] concerns bordetella brochiseptica (BO BR) 4617. The experiment is described as follows: agar serial dilution MIC, BO BR 4617. The class given is cell-based. The conditions noted are these: BO BR strain 4617.
Text: as §1, §2
Bo br -- bordetella brochiseptica

In experiment [10] the test system is staphylococcus aureus (ST AU) 53-180. The experiment is described as follows: agar serial dilution MIC, ST AU 53-180. Format: cell-based.
Text: as §1, §2, §3

Experiment [11] relates to proteus vulgaris (PR VU) 6896. The experiment can be described thus: agar serial dilution MIC, PR VU 6896. The note with it: PR VU strain 6896. Format: cell-based.
Text: as §1, §2
Pr vu -- proteus vulgaris

For experiment [12], the system named is proteus mirablis (PR MI) PR-3. The experiment is described as follows: in vivo curative dose in infected mice, PR MI PR-3. The note with it: subcutaneous at zero time and 6 hours after i.p. infection, 14 days, mg per mouse, average of several tests. On the procedure: (§5) The in vivo activity of the antibacterial agents of this invention was established by subcutaneously administering a dose of the compound being tested at zero time and 6 hours after infection to a randomized group of mice which had been infected with a specific infective agent, such as Escherichia coli, etc., via intraperitoneal injection of 0.5 milliliters of the infective agent in 5 per cent gastric mucin. The mice were then observed for 14 days and any deaths were recorded daily. The curative dose (CD50) was then reported in terms of the milligrams per mouse needed for […] of the infective agent.
Pr mi -- proteus mirablis

The subject of experiment [13] is staphylococcus aureus (ST AU) Smith. The experiment is described as follows: in vivo curative dose in infected mice, ST AU Smith. The note with it: subcutaneous at zero time and 6 hours after i.p. infection, 14 days, mg per mouse, average of several tests. On the procedure: as §5, §3
The subject of experiment [14] is escherichia coli (ES CO) 920. The experiment can be described thus: in vivo curative dose in infected mice, ES CO 920. The note with it: subcutaneous at zero time and 6 hours after i.p. infection, 14 days. On the procedure:
as §5, §4

For experiment [15], the system named is salmonella typhosa (SA TY) SAD-12. The experiment is described as follows: in vivo curative dose in infected mice, SA TY SAD-12. The note with it: subcutaneous at zero time and 6 hours after i.p. infection, 14 days, mg per mouse, average of several tests. The protocol:
as §5
Sa ty -- salmonella typhosa

The subject of experiment [16] is shigella sonnei (SH SO) SH-1. The experiment can be described thus: in vivo curative dose in infected mice, SH SO SH-1. The conditions noted are these: subcutaneous at zero time and 6 hours after i.p. infection, 14 days, mg per mouse, average of several tests. The protocol: as §5
The subject of experiment [17] is escherichia intermedia (ES IN) 65-1. The experiment can be described thus: agar serial dilution MIC, ES IN 65-1. The class given is cell-based. The conditions noted are these: Citrobacter intermedius, ES IN strain 65-1.
Text: as §1, §2
Es in -- escherichia intermedia

For a further experiment, the system named is EN AE 13048. The experiment is described as follows: agar serial dilution MIC, EN AE 13048. The class given is cell-based. The conditions noted are these: EN AE strain 13048.
Text: as §1, §2

Where [18] appears, read: agar serial dilution, ST AU strain 53-180, read-out: MIC.
Setting [19] is: agar serial dilution, ST AU strain Smith, read-out: MIC.
The mark [20] stands for this setting: agar serial dilution, ST AU strain 6538P, read-out: MIC.

As to `CC(=O)OCC1=C(C(=O)O)N2C(=O)C(NC(=O)CCNC(=S)SCC(=O)O)C2SC1` (stereo not drawn) [Example 2, 7-[3-(Dithiocarboxyamino)propionamido]cephalosporanic acid N-carboxymethyl ester], the minimum inhibitory concentration (MIC) in experiment [1] was 0.488 µg/mL (≈ 1.02 µM); in [2] it was 0.976 µg/mL (≈ 2.04 µM); in experiment [3], 15.6 µg/mL (≈ 32.7 µM); in [4], 0.976 µg/mL (≈ 2.04 µM); in experiment [5], 31.3 µg/mL (≈ 65.5 µM); in [6], 3.9 µg/mL (≈ 8.17 µM). Besides, the MIC stood at 0.976 µg/mL (≈ 2.04 µM) in [7]; 125 µg/mL (≈ 262 µM) in experiment [8]; 7.81 µg/mL (≈ 16.4 µM) in experiment [9]; 3.9 µg/mL (≈ 8.17 µM) in experiment [10] (setting [18]); 1.95 µg/mL (≈ 4.08 µM) in [11].

On to `CC(=O)OCC1=C(C(=O)O)N2C(=O)C(NC(=O)CNC(=S)SCC(=O)O)C2SC1` (stereo not drawn) [Example 1, 7-[2-(Dithiocarboxyamino)acetamido]cephalosporanic acid N-carboxymethyl ester], for which the MIC in experiment [1] worked out at 0.244 µg/mL (≈ 0.526 µM); in experiment [2] (setting [19]), 0.976 µg/mL (≈ 2.11 µM); in experiment [3], 62.5 µg/mL (≈ 135 µM); in experiment [4], 7.81 µg/mL (≈ 16.8 µM); in [5] it was 31.3 µg/mL (≈ 67.5 µM); in experiment [6], 3.9 µg/mL (≈ 8.41 µM). Further, the MIC in experiment [7] (setting [20]) turned out to be 0.976 µg/mL (≈ 2.11 µM); in [8], 250 µg/mL (≈ 539 µM); in experiment [9], 15.6 µg/mL (≈ 33.7 µM); in experiment [10] (setting [18]) it was 3.9 µg/mL (≈ 8.41 µM); in experiment [17], 250 µg/mL (≈ 539 µM); in experiment [11] it was 15.6 µg/mL (≈ 33.7 µM). Also, the “in vivo curative dose (CD50)” value in [12] is reported as 1.96 mg; in [13], 4.37 mg; in experiment [14] (mg per mouse, average of several tests, ES CO 920), 4.48 mg; in experiment [15] it was 1.41 mg; in experiment [16], 2.66 mg.

For `CC(=O)OCC1=C(C(=O)O)N2C(=O)C(NC(=O)C(NC(=S)SCC(=O)O)c3ccccc3)C2SC1` (stereo not drawn) [Example 3, 7-[2-(Dithiocarboxyamino)phenylacetamido]cephalosporanic acid N-carboxymethyl ester], the MIC in experiment [1] amounted to 3.9 µg/mL (≈ 7.23 µM); in experiment [2] (setting [19]) it was 7.81 µg/mL (≈ 14.5 µM); in experiment [3], 31.3 µg/mL (≈ 58 µM); in experiment [4] it was 15.6 µg/mL (≈ 28.9 µM); in experiment [5] it was 31.3 µg/mL (≈ 58 µM); in experiment [6], 31.3 µg/mL (≈ 58 µM). In addition, the MIC in experiment [7] (setting [20]) came out at 7.81 µg/mL (≈ 14.5 µM); in [8], 250 µg/mL (≈ 463 µM); in experiment [9], 125 µg/mL (≈ 232 µM); in [10] it was 15.6 µg/mL (≈ 28.9 µM); in the experiment on EN AE 13048, 250 µg/mL (≈ 463 µM); in [17] it was 250 µg/mL (≈ 463 µM). The same molecule registered an MIC in experiment [11] of 7.81 µg/mL (≈ 14.5 µM). The molecule also gave a CD50 in [14] (ES CO-920) of 6.0 milligrams/mouse.
